Reference: ChEMBL document CHEMBL1127704 (J Med Chem, 1994)
pIC50: −log10 of the molar value.

Columns and labels:
Dihydrofolate reductase [1] = target: T1, Dihydrofolate reductase (Pneumocystis carinii, UniProt P16184)
T1 sequence (P16184 whole entry): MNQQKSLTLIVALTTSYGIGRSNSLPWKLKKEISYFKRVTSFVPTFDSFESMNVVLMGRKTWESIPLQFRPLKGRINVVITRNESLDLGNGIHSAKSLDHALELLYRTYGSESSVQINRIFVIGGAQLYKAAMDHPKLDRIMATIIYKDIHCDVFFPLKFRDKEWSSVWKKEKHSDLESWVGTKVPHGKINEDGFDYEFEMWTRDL
Description: Inhibition of Dihydrofolate reductase of Pneumocystis carinii

Dihydrofolate reductase [2] = target: T2, Dihydrofolate reductase (Rattus norvegicus, UniProt Q920D2)
T2 sequence (Q920D2 whole entry): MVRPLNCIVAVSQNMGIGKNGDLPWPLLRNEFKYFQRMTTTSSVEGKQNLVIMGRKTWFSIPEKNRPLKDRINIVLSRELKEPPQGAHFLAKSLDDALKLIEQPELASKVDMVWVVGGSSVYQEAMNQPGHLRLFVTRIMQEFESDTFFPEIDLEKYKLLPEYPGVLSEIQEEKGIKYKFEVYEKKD
Description: Inhibition of Dihydrofolate reductase (DHFR) of in rat liver

[3] = target: T3, Bifunctional dihydrofolate reductase-thymidylate synthase (Toxoplasma gondii, UniProt Q07422)
T3 sequence (Q07422 whole entry): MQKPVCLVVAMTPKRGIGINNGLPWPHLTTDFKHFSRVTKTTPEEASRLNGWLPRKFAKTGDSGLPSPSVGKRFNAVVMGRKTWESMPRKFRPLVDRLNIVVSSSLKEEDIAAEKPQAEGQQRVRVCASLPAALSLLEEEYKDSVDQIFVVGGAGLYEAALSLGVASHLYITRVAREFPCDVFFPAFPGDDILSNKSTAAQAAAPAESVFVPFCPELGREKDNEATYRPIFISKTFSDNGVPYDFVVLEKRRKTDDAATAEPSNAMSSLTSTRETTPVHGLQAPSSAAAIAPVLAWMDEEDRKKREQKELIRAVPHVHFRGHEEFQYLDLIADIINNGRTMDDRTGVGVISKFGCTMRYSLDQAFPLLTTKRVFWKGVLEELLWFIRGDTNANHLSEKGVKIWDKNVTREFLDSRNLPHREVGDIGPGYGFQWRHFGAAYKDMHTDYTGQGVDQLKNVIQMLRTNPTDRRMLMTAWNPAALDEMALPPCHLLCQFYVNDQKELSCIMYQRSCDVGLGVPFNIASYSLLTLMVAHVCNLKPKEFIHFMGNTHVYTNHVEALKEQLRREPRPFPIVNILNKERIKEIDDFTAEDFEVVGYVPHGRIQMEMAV
Description: Inhibition of Dihydrofolate reductase of Toxoplasma gondii

| Compound | pIC50 (Dihydrofolate reductase [1]) | pIC50 (Dihydrofolate reductase [2]) | pIC50 [3] |
| --- | --- | --- | --- |
| COc1cc(CNc2ccc3nc(N)nc(N)c3c2Cl)cc(OC)c1OC | 7.48 | 8.22 | 8.15 |
| COc1ccc(OC)c(CNc2ccc3nc(N)nc(N)c3c2Cl)c1 | 7.28 | 7.55 | 7.77 |
| COc1cc(CN(C)c2ccc3nc(N)nc(N)c3c2Cl)cc(OC)c1OC | 6.77 | 7.42 | 7.80 |
| COc1ccc(OC)c(CCCNc2ccc3nc(N)nc(N)c3c2Cl)c1 | 4.59 | 5.72 | 6.00 |
| COc1cc(CCNc2ccc3nc(N)nc(N)c3c2Cl)cc(OC)c1OC | 4.37 | 5.27 | 5.59 |
| COc1cc(CCCNc2ccc3nc(N)nc(N)c3c2Cl)cc(OC)c1OC | 4.02 | – | 4.85 |
| COc1ccc(OC)c(CCNc2ccc3nc(N)nc(N)c3c2Cl)c1 | 4.92 | – | 6.00 |
| COc1cc(N(C)Cc2ccc3nc(N)nc(N)c3c2Cl)cc(OC)c1OC | – | – | 8.19 |
| COc1ccc(OC)c(NCc2ccc3nc(N)nc(N)c3c2Cl)c1 | 7.29 | 7.36 | 7.52 |
| COc1cc(NCc2ccc3nc(N)nc(N)c3c2Cl)cc(OC)c1OC | 7.48 | 8.23 | 8.28 |
